Assay results taken from patent publication US8106089B2, “Anti-tubulin acting arylpyrrol, arylfuran and arylthiophene derivatives, method for the preparation thereof and for the use thereof as an antimitotic” (Centre National de la Recherche, priority 2004, dated 2012).

Tests used:
Format in all cases: cell-based
[1] = tested on: B16 F1 cells; assay: MTT test, cell growth; settings: Mus musculus, mean ± sd of 3 experiments in triplicate, read-out: IC50 (concentration that inhibits 50% of cell growth) ± sd
Excerpt: (§1) Aim: Given the role of tubulin in the formation of the mitotic spindle, we analyzed the effect of the compounds according to the present invention on the cell cycle of the following murine cells using various methods: the murine melanoma tumor cell line, the B16 F1 cell line and the mel a cell line (melanocytes), and the L1210 mouse leukemia cell line.
(§2) We initially evaluated the effect of compounds 17, 18 and 19 on the growth of the three cell lines by a “MTT” test. The principle of the MTT test consists of measuring the activity of mitochondrial succinate dehydrogenase in living cells. This enzyme transforms MTT (3-(4,5-dimethylthiazol-2-yl)-2,5-diphenyltetrazolium bromide), yellow in color, into insoluble purple formazan crystals. After dissolution of the crystals in dimethylsulfoxide (DMSO), absorbance is measured at 540 nm by spectrophotometry. The optical densities obtained are directly proportional to the number of living cells. The cytotoxic effect of a sample is evaluated by the percentage of living cells in the presence of this sample, compared to the cells treated with the solvent alone. This method makes it possible to measure the proportion of living cells in a given cell population. By comparison with untreated cells, we thus determined the concentration of each compound that induces a 50% inhibition of cell growth. The IC50 ranges from 50 μM to 100 μM.

[2] = tested on: L1210 mouse leukemia cells; assay: MTT test, cell growth; settings: mean ± sd of 3 experiments in triplicate, read-out: IC50 (concentration that inhibits 50% of cell growth) ± sd
Excerpt: as §1, §2

[3] = tested on: mouse melanoma (B16) cells; assay: Cell cycle progression, flow cytometry after propidium iodide labeling; settings: for % of B16 cells in phase G1 / % of B16 cells in phase G2/M / % of B16 cells in phase S: 24 hours
Procedure: (§3) In order to approach the mechanism of action of these compounds, we then studied their effect on the progression of the cell cycle in mouse melanoma (B16) cells and mouse leukemia (L1210) cells. For this purpose, we compared the distribution of the treated or untreated cells in each phase of the cycle. […] They then were fixed and made permeable with ethanol. After incubation with propidium iodide, which labels cellular DNA, the DNA content of the cells is then analyzed by flow cytometry.

[4] = tested on: mouse leukemia (L1210) cells; assay: as above; settings: 24 hours
Procedure: as §3

[5] = tested on: mel a melanocytes; assay: MTT test, cell growth; settings: Mus musculus, Melanocyte, mean ± sd of 3 experiments in triplicate, read-out: IC50 (concentration that inhibits 50% of cell growth) ± sd
Excerpt: as §1, §2

CC(C)c1ccc(CCCO)[nH]1 [Compound 21, 3-(5-Isopropyl-1H-pyrrol-2-yl)-propan-1-ol]
IC50 [1]: > 400 µM
IC50 [2]: > 400 µM

CC(C)c1cc(-c2ccccc2N)c(CCCO)[nH]1 [Compound 19, 3-[3-(2-Amino-phenyl)-5-isopropyl-1H-pyrrol-2-yl]-propan-1-ol]
% of B16 cells in phase G1 ([3]; 50 μM): 78.7%
% of B16 cells in phase G2/M ([3]; 50 μM): 5.2%
% of B16 cells in phase S ([3]; 50 μM): 14.1%
% of B16 cells in phase G1 ([3]; 75 μM): 56.1%
% of B16 cells in phase G2/M ([3]; 75 μM): 31.9%
% of B16 cells in phase S ([3]; 75 μM): 2.8%
% of L1210 cells in phase G1 ([4]; 50 μM): 49.5%
% of L1210 cells in phase G2/M ([4]; 50 μM): 24%
% of L1210 cells in phase S ([4]; 50 μM): 26.5%
% of L1210 cells in phase G1 ([4]; 75 μM): 39.8%
% of L1210 cells in phase G2/M ([4]; 75 μM): 38.8%
% of L1210 cells in phase S ([4]; 75 μM): 21.4%
IC50 [5]: 116 ± 3.2 µM
IC50 [1]: 107 ± 1.8 µM
IC50 [2]: 17.7 ± 4.5 µM

CC(C)[C@@H](C=O)NC(=O)OC(C)(C)C [compound 2, (S)—N-(tert-Butoxycarbonyl)valinal]
higher proportion of cells in phase G2/M versus control ([3]; concentrations near IC50 or higher, cell line not stated): approximately 3 times

CC(C)c1cc(-c2ccccc2N)c(CCCO)n1C(=O)OC(C)(C)C [Compound 17, 3-(2-Amino-phenyl)-2-(3-hydroxy-propyl)-5-isopropyl-pyrrole-1-carboxylic acid tert-butyl ester]
% of B16 cells in phase G1 ([3]; 50 μM): 58.0%
% of B16 cells in phase G2/M ([3]; 50 μM): 25.4%
% of B16 cells in phase S ([3]; 50 μM): 16.6%
% of B16 cells in phase G1 ([3]; 70 μM): 40.8%
% of B16 cells in phase G2/M ([3]; 70 μM): 22.3%
% of B16 cells in phase S ([3]; 70 μM): 37%
% of B16 cells in phase G1 ([3]; 100 μM): 43.3%
% of B16 cells in phase G2/M ([3]; 100 μM): 16.5%
% of B16 cells in phase S ([3]; 100 μM): 40.3%
% of L1210 cells in phase G1 ([4]; 40 μM): 54.9%
% of L1210 cells in phase G2/M ([4]; 40 μM): 23.2%
% of L1210 cells in phase S ([4]; 40 μM): 21.9%
% of L1210 cells in phase G1 ([4]; 50 μM): 39.2%
% of L1210 cells in phase G2/M ([4]; 50 μM): 43.6%
% of L1210 cells in phase S ([4]; 50 μM): 17.2%
IC50 [5]: 69.7 ± 0.9 µM
IC50 [1]: 88.7 ± 7.6 µM
IC50 [2]: 53.7 ± 0.7 µM

CC(C)c1cc(-c2ccccc2)c(CCCO)[nH]1 [Compound 18, 3-(5-Isopropyl-3-phenyl-1H-pyrrol-2-yl)-propan-1-ol]
% of B16 cells in phase G1 ([3]; 75 μM): 65.0%
% of B16 cells in phase G2/M ([3]; 75 μM): 12.1%
% of B16 cells in phase S ([3]; 75 μM): 11.3%
% of B16 cells in phase G1 ([3]; 125 μM): 50.0%
% of B16 cells in phase G2/M ([3]; 125 μM): 32.0%
% of B16 cells in phase S ([3]; 125 μM): 5.2%
% of B16 cells in phase G1 ([3]; 150 μM): 42.1%
% of B16 cells in phase G2/M ([3]; 150 μM): 36.0%
% of B16 cells in phase S ([3]; 150 μM): 21.8%
% of L1210 cells in phase G1 ([4]; 40 μM): 32.7%
% of L1210 cells in phase G2/M ([4]; 40 μM): 12.6%
% of L1210 cells in phase S ([4]; 40 μM): 54.7%
% of L1210 cells in phase G1 ([4]; 55 μM): 30.9%
% of L1210 cells in phase G2/M ([4]; 55 μM): 21.9%
% of L1210 cells in phase S ([4]; 55 μM): 47.2%
IC50 [1]: 171 ± 10.8 µM
IC50 [2]: 33.2 ± 1.3 µM
